Data from BindingDB's records for patent US10538528 (Taiho Pahrmaceutical Co., Ltd., 2020).

Target: RAC-alpha serine/threonine-protein kinase (Homo sapiens, UniProt P31749)
Experiment: Kinase Activity Assay
Procedure: Akt1 was prepared and assays of inhibitory activity of the compound according to the present invention against Akt1 kinase activity in vitro were conducted according to the method described in Biochem. J., vol. 385, pp. 399-408, 2005 and Cancer Res., vol. 68, pp. 2366-2374, 2008. In the preparation of Akt1 protein, human Akt1 tagged with the middle T antigen was expressed in an insect cell Sf9, Akt1 was prepared through affinity purification and activation by PDK1, and the resultant was stored at −80° C. until the inhibition assays of the compounds. In the inhibition assay of the compounds, Akt1 and the compound according to the present invention were subjected to pre-incubation at 25° C. for 120 minutes in a reaction buffer (15 mM Tris-HCl, pH 7.5, 0.01% Tween-20, 2 mM DTT). Subsequently, biotinylated Crosstide (biotin-[…], Millipore), MgCl2, and ATP were added as substrates at the final concentration of 500 nM, 10 mM, and 150 μM, respectively, and the reaction was allowed to proceed at 25° C. for 60 minutes. […] In the end, the fluorescence levels irradiated with an excitation light of 337 nm were assayed at two different wavelength levels (i.e., 620 nm and 665 nm) using PI-HERAstar FS (BMG LABTECH) or PHERAstar (BMG LABTECH).

RAC-alpha serine/threonine-protein kinase, sequence (P31749 whole entry): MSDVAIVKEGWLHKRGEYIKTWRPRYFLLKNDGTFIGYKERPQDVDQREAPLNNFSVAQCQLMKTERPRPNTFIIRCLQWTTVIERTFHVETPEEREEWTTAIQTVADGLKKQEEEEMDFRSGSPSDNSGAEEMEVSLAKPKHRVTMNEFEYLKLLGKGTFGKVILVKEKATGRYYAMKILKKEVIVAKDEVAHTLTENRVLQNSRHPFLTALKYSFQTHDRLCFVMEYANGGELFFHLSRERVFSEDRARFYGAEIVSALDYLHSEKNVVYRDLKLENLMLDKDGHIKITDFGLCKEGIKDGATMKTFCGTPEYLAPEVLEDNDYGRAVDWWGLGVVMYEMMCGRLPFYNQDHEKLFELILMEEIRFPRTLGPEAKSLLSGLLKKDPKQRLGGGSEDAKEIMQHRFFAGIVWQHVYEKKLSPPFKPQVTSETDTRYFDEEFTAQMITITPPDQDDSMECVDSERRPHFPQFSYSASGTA

CN(C)CCn1cc(-c2ccc(F)c(C(F)(F)F)c2)nc1C1CCN(c2ncnc3c2C(C)(C)C(=O)N3)CC1 [US10538528, Compound A]
IC50: 52.2 nM
